Measured values: publication PMC10647589, “Heterogeneous Cellular Response of Primary and Metastatic Human Gastric Adenocarcinoma Cell Lines to Magnoflorine and Its Additive Interaction with Docetaxel” (International Journal of Molecular Sciences, 2023)

What was measured:
[1] = system: human GC cells ACC-201, AGS, MKN-74 and NCI-N87; experiment: BrdU incorporation assay; type: cell-based; conditions: MGN 2–75 μg/mL, 72 h, four GC cell lines
Procedure: The human GC cells ACC-201, AGS, MKN-74 and NCI-N87 were placed in 96-well plates and allowed to adhere overnight. On the following day, the growth medium was replaced with fresh medium, and the cells were exposed to a series of tested MGN dilutions (2.0–75 µg/mL) for 72 h. Cell proliferation was quantified according to the manufacturer’s instruction, Cell Proliferation ELISA, BrdU (colorimetric) (Biorbyt, Cambridge, UK). Briefly, BrdU reagent was added to the medium, followed by Fixative/Denaturing Solution for 30 min at room temperature. Incorporated BrdU in the place of thymidine in the cell’s DNA under division was detected using mouse monoclonal anti-BrdU for 1 h at room temperature, followed by horseradish peroxidase (HRP)-linked goat anti-mouse IgG secondary antibody and tetramethylbenzidine (a HRP substrate) for 30 min at room temperature. The absorbance was measured at 450 nm using Infinite M200 Pro microplate reader (Tecan, Männedorf, Switzerland). Results are presented as a percentage of BrdU incorporation vs. control cells (indicated as 100%).

ACC-201 human GC cells [2] = experiment: Active caspase-3 analysis (flow cytometry); type: cell-based; conditions: ACC-201, MGN 10 µg/mL, 72 h
Procedure: (§1) Human GC cells ACC-201, AGS, MKN-74 and NCI-N87 were seeded in 6-well plates and allowed to adhere overnight. On the following day, the growth medium was replaced with fresh medium, and the cells were exposed to indicated concentrations of MGN (10–40 µg/mL) for 72 h. Apoptotic cells were analyzed using PE Active Caspase-3 Apoptosis Kit (BD Biosciences) according to the manufacturer’s instructions. Briefly, the cells were collected, washed with cold PBS and then incubated in Cytofix/Cytoperm Solution for 20 min on ice. After two washes, the cells were incubated with Active Caspase-3 Antibody in Perm/Wash Buffer for 30 min at room temperature. Finally, the cells were resuspended in Perm/Wash Buffer and quantitative analysis of 10,000 cells per sample was performed through the use of FACS CaliburTM flow cytometer (BD Biosciences, Mountain View, CA, USA).

MKN-74 human GC cells = experiment: Active caspase-3 analysis (flow cytometry); type: cell-based; conditions: MKN-74, MGN 10 µg/mL, 72 h
Procedure: as §1

AGS human GC cells = experiment: Active caspase-3 analysis (flow cytometry); type: cell-based; conditions: 72 h
Procedure: as §1

ACC-201 human GC cells [3] = experiment: Cell cycle analysis (PI, flow cytometry); type: cell-based; conditions: 72 h
Procedure: Human GC cells ACC-201, AGS, MKN-74 and NCI-N87 were seeded in 6-well plates and allowed to adhere overnight. On the following day, the growth medium was removed, and the cells were treated with indicated concentrations of MGN (10–40 µg/mL) for 72 h. After that, the cells were washed with phosphate-buffered saline (PBS) and fixed in 70% ethanol at 4 °C overnight. Then, the cells were washed with PBS and stained with propidium iodide, utilizing PI/RNase Staining Buffer (BD Biosciences, Heidelberg, Germany) for 15 min in the dark. Cell distribution in different stages of the cell cycle was performed through the use of the FACS CaliburTM flow cytometer (BD Biosciences, Mountain View, CA, USA).

[4] = system: zebrafish embryos and larvae; experiment: Zebrafish embryo toxicity test (OECD test no. 236, modified); type: in vivo
Procedure: At first, zebrafish embryos were screened and sorted one hour after fertilization. Only perfectly transparent and fertilized embryos were transferred to plastic well plates. […] Developing embryos were incubated in the MGN solutions until 96 hpf. The amounts of MGN absorbed by zebrafish were measured in 96 hpf-old larvae (n = 50 larvae/sample, three samples/dose) through the use of HPLC-MS. The larvae were first washed in medium prior to homogenization with the additive of acetonitrile:water mixture in equal proportions (50:50 v/v). The homogenate was centrifuged at 20,000 rpm for 20 min, and the supernatant was pipetted, filtered through a nylon syringe filter (nominal pore size of 0.1 µm diameter) and subjected to HPLC-MS analysis in the positive ionization mode.
The following phenotypic features were scored in larvae exposed to different doses of MGN: (I) hatchability at 72 and 96 hpf, (II) morphological anomalies at 96 hpf, and (III) escape response at 96 hpf. Morphological analysis included the presence/lack of swim bladder, body axis/shape, presence/lack of pericardial edema, jaw development, normal/necrotic yolk sac, presence/absence of hemorrhage and changes in pigmentation. For photographs, each larva was anaesthetized and mounted on a glass slide. To evaluate the muscle performance and function in MGN-incubated larvae, in a separate cohort of 96 hours-old larvae, we assessed escape response by touching the tail with the tip of a needle.

zebrafish larvae = experiment: Locomotor activity assay in larval zebrafish; type: in vivo; conditions: MGN 100, 175 or 250 µg/mL, after 95 h incubation
Procedure: Locomotor activity was examined to determine whether chronic MGN exposure may induce neurotoxic effects in fish. Noldusapparatus (EthoVision XT, Wageningen, The Netherlands) was used for this purpose. After 95 h of incubation in different doses of MGN (100, 175 or 250 µg/mL), each larva was placed individually in the wells of a 48-well plate filled with 300 µL of the medium. After 15 min of habituation, larval activity was tracked in the light phase for a period of 30 min. The distance covered by each larva in millimeters (mm) was assessed.

## COc1ccc2c(c1O)-c1c(O)c(OC)cc3c1[C@H](C2)[N+](C)(C)CC3 [MGN, magnoflorine]
[1]
  BrdU-labeled DNA (proliferation): dose-dependent decrease
ACC-201 human GC cells [2]
  % cells with active caspase-3: 6.770 ± 0.866%
MKN-74 human GC cells
  % cells with active caspase-3: 2.633 ± 0.069%
AGS human GC cells; MGN 10 µg/mL
  % cells with active caspase-3: 2.390 ± 0.411%
AGS human GC cells; MGN 20 µg/mL
  % cells with active caspase-3: 4.172 ± 0.422%
ACC-201 human GC cells [3]; ACC-201, MGN 10 µg/mL
  cells in G1 phase: 62.76% ± 2.434
  cells in G2 phase: 9.96% ± 3.707
  cells in S phase: 8.74% ± 3.423
  cells in subG1 phase: 18.52% ± 1.414
ACC-201 human GC cells [3]; ACC-201, MGN 20 µg/mL
  cells in G1 phase: 57.23% ± 2.112
  cells in G2 phase: 8.34% ± 4.237
  cells in S phase: 8.33% ± 1.647
  cells in subG1 phase: 26.06% ± 1.399
ACC-201 human GC cells [3]; ACC-201, MGN 30 µg/mL
  cells in G1 phase: 49.55% ± 1.820
  cells in G2 phase: 5.87% ± 5.399
  cells in S phase: 6.16% ± 1.340
  cells in subG1 phase: 38.50% ± 1.886
ACC-201 human GC cells [3]; ACC-201, MGN 40 µg/mL
  cells in G1 phase: 39.27% ± 3.408
  cells in G2 phase: 3.74% ± 1.615
  cells in S phase: 5.61% ± 1.874
  cells in subG1 phase: 51.43% ± 2.072
[4]; MGN 100 µg/mL, scored at 72 hpf
  Hatching rate: 100%
[4]; MGN 100 µg/mL, scored at 96 hpf
  Hatching rate: 100%
[4]; MGN 175 µg/mL, scored at 72 hpf
  Hatching rate: 100%
[4]; MGN 175 µg/mL, scored at 96 hpf
  Hatching rate: 100%
[4]; MGN 250 µg/mL, scored at 72 hpf
  Hatching rate: 52.77%
[4]; MGN 250 µg/mL, scored at 96 hpf
  Hatching rate: 94.44%
[4]; MGN 500 µg/mL, 96 hpf
  larvae with curved body axis: 43%
  larvae with delayed touch response: 70%
  larvae with heart edema: 40%
  larvae with lack of swim bladder: 93%
  larvae with underdeveloped jaw: 90%
  larvae with yolk sac necrosis: 46%
[4]; MGN 500 µg/mL, scored at 72 hpf
  Hatching rate: 23.33%
[4]; MGN 500 µg/mL, scored at 96 hpf
  Hatching rate: 86.66%
[4]; MGN 750 µg/mL, up to 96 h
  Hatching: none of the larvae hatched
  Survival: all survived in chorions
[4]; developing zebrafish, chronic exposure from 1 hpf to 96 hpf
  concentration with no evidence of toxicity: up to 250 µg/mL
[4]; three lowest concentrations (100, 175, 250 µg/mL), 96 hpf
  morphological parameters scored: did not affect any of the parameters scored
Zebrafish larvae
  locomotor activity: distance travelled within 30 min vs control: No differences between the tested groups
